Like-named read-outs stand apart in the source and are kept apart here.
Experiments:
[1] = molecular target: T1, plasma clot entrapped thrombin (Homo sapiens, UniProt P00734); test: Inhibition of thrombin entrapped in plasma clot (methods M1, M3); type: biochemical; details: platelet-rich human plasma clot; Tos-Gly-Pro-Arg-pNA substrate
T1 construct: Here prothrombin is converted to thrombin; from tissue; host or cells: clot of recalcified platelet-rich human citrate plasma
Method: The plasma clot was obtained by the recalcification of platelet-rich human citrate plasma and fibrin gel by the coagulation of human fibrinogen with human thrombin Z-D-Arg-Gly-Arg-pNA and Tos Gly-Pro-Arg-pNA were used as substrates for measuring the activity of factor Xa and thrombin (methods M1-M5).
Preparation of Plasma Clot
a) Platelet-rich plasma (PRP) is prepared by centrifuging a 9:1 mixture of human blood and 3.8% aqueous sodium citrate solution (1/2) for 5 minutes at 240×g.
b) 200 μL of PRP are placed in each reaction vessel, 80 μL of 40 mM calcium chloride solution is added and the mixture is left to stand at room temperature for one hour. The plasma clot formed is rinsed mildly with 6×2 ml of 0.9% sodium chloride solution followed by 5 minute sedimentation to remove the dissolved enzymes (factor Xa and thrombin). The thrombin content of the washings is assayed as follows.
c) To 400 μL of washing liquid 100 μL of 1 mM Tos-Gly-Pro-Arg-pNA substrate solution is added and the mixture is incubated for 30 minutes at 37° C., then the reaction is stopped by the addition of 100 μL of 50% acetic acid. 150 μL portions of this mixture are transferred into the wells of the 96-well microtiter plate and the extinction is measured at 405 nm (ELISA READER SLT Laborinstrument GmbH, Austria). When the washing is successful, the extinction is less than 5% of the control
Assay of the Inhibition of Thrombin Entrapped in Plasma Clot
a) Peptide inhibitor solutions are prepared by the process described in Method M2, point a).
b) After draining the washing liquid, 400 μL of the peptide solution (3 parallel samples for each concentration) and 400 μL of buffer, serving as control, are placed on the clot (Method M1) and the mixture is incubated for 5 minutes at 37° C. Thereafter 100 μL of […] Tos-Gly-Pro-Arg-pNA substrate solution is added and incubation at 37° C. is continued for further 30 minutes, then the reaction is stopped by the addition of 100 μL of 50% acetic acid. The operation is continued as described in Method M2, point c).

[2] = test system: whole blood clotting time (WBCT); test: Ex vivo whole blood clotting time (WBCT) in rabbits after p.o. dosing; parameters: species or system New Zealand white rabbits; details: p.o. 5 mg/kg
Method: (§1) The anticoagulant and platelet aggregation inhibiting effect of the compounds of general formula (I) was studied In New Zealand white rabbits ex vivo according to D. Bagdy et al [Thromb. Haemost 67. 357 (1992). The compounds were dissolved in buffered isotonic saline solution and administered i.v. (0,04-5.0 mg/kg) or by infusion (0.25-5.0 mg/kg/h) or subcutaneously (0.5-6.0 mg/kg) or p.o. (2.5-20 mg/kg). The effect of the compounds was detectable already within 30 minutes following p.o. administration, peak values were attained after 60-180 minutes and the therapeutic level was maintained dose-dependently for 3→6 hours.
(§2) The in vivo effect of D-cHga Pro-Arg-H (1) is presented in detail in Tables 5 and 6. The corresponding values of C1 are listed as controls. The compound was administered p.o. in doses of 5 mg/kg. The blood samples drawn from the caudal vein in every 30-60 minutes were analyzed. The whole blood clotting time (WBCT) and the inhibition of thrombin-induced blood platelet aggregation (PAI) were determined. The activated partial thromboplastin time (APTT) and the thrombin time (TT) in the citrate plasma obtained from the blood sample were also measured. The APTT and TT values are compiled in Table 5 and the WBCT and PAI values in Table 6.

[3] = test system: thrombin-induced blood platelet aggregation; test: Ex vivo inhibition of thrombin-induced blood platelet aggregation (PAI) in rabbits after p.o. dosing; parameters: species or system New Zealand white rabbits; details: p.o. 5 mg/kg
Method: as §1, §2

[4] = molecular target: tissue plasminogen activator (tPA) (Homo sapiens, UniProt P00750); test: Fibrin-plate method, plasmin formation induced by tPA; type: biochemical; details: for IC50: fibrin-plate method, hydrolyzed area reduced by 50%
tissue plasminogen activator (tPA), sequence (P00750 36-562, species assumed): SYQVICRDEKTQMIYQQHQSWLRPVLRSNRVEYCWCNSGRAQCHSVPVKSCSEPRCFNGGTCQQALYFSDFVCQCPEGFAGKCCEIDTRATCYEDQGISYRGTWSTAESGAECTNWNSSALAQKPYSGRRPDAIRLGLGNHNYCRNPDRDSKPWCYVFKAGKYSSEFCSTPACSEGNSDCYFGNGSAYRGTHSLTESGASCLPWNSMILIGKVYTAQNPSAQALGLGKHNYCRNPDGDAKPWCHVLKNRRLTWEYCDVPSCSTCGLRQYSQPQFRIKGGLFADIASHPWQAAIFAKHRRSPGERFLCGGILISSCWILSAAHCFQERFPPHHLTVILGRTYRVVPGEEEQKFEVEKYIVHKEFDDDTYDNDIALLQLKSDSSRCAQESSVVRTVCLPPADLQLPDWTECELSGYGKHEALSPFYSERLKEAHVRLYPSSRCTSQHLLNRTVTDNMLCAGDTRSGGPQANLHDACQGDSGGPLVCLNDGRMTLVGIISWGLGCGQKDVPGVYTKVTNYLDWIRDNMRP
Text: (§3) The inhibitory effect of the new compounds of the invention on plasmin (PL) as well as on plasmin formation induced by tissue plasminagen activator (tPA) and urokinase (UK) was studied by the […] [D. Bagdy et al.; Thromb. Haemost. 67, 325 (1992)]. Compounds C1 and C3 served as controls. […] V. Jackson et al., J. Cardiovasc. Pharmacol. 21, 587 (1993)].
(§4) ^a IC50 = peptide concentration (mM) where the hydrolyzed area o
(§5) the fibrin plate is reduced by 50% compared to the control

plasmin (PL) = plasmin (PL) (Homo sapiens, UniProt P00747); test: Fibrin-plate method, plasmin; type: biochemical; details: for IC50: fibrin-plate method, hydrolyzed area reduced by 50%
plasmin (PL), sequence (P00747 581-810 limits assumed, species assumed): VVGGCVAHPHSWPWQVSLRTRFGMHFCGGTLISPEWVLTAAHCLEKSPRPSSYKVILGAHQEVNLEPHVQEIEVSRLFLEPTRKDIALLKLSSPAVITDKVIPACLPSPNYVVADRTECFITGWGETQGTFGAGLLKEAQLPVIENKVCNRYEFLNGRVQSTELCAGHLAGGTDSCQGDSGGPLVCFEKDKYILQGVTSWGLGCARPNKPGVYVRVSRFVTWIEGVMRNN
plasmin (PL), sequence (P00747 97-580 partner limits assumed, species assumed): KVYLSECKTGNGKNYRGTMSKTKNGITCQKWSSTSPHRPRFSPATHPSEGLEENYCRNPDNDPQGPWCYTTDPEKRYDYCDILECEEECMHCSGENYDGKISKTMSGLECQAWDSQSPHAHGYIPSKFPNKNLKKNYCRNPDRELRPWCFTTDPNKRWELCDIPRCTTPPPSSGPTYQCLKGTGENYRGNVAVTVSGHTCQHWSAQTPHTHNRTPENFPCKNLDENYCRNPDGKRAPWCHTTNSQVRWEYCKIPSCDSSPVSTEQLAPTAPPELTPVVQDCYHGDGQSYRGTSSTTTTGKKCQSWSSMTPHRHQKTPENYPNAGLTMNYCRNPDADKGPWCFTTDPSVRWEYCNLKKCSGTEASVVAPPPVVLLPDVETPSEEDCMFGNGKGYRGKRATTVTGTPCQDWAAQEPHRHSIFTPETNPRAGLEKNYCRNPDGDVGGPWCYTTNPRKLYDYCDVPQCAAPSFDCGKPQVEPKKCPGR
Text: as §3, §4, §5

[5] = test system: activated partial thromboplastin time (APTT); test: Ex vivo APTT in citrate plasma of rabbits after p.o. dosing; parameters: species or system New Zealand white rabbits; details: p.o. 5 mg/kg
Method: as §1, §2

thrombin time (TT) = test: Ex vivo TT in citrate plasma of rabbits after p.o. dosing; parameters: species or system New Zealand white rabbits; details: p.o. 5 mg/kg
Method: as §1, §2

[6] = related to the activity of C1 (1/IC50 = 1)

N=C(N)NCCC[C@@H](C=O)NC(=O)[C@H]1CCCN1C(=O)C(O)C1CCCCCC1.N=C(N)NCCC[C@@H](C=O)NC(=O)[C@H]1CCCN1C(=O)C(O)C1CCCCCC1.O=S(=O)(O)O (stereo partly drawn) [Compound 1, D-2-Cycloheptyl-2-hydroxyacetyl-L-prolyl-L-arginine aldehyde hemisulfate]
IC50 [1]: 0.52 µM
WBCT relative clotting time ([2]; 0 min): 1.0
WBCT relative clotting time ([2]; 30 min): 1.80 ± 0.36
WBCT relative clotting time ([2]; 45 min): 2.03 ± 0.35
WBCT relative clotting time ([2]; 60 min): 1.98 ± 0.30
WBCT relative clotting time ([2]; 90 min): 1.78 ± 0.26
WBCT relative clotting time ([2]; 120 min): 1.52 ± 0.13
WBCT relative clotting time ([2]; 180 min): 1.29 ± 0.07
WBCT relative clotting time ([2]; 240 min): 1.13 ± 0.04
PAI(%) ([3]; 0 min): 0%
PAI(%) ([3]; 30 min): 71.0 ± 19.4%
PAI(%) ([3]; 45 min): 74.0 ± 13.9%
PAI(%) ([3]; 60 min): 91.0 ± 4.5%
PAI(%) ([3]; 90 min): 93.0 ± 3.5%
PAI(%) ([3]; 120 min): 92.4 ± 6.5%
PAI(%) ([3]; 180 min): 71.6 ± 19.8%
PAI(%) ([3]; 240 min): 49.4 ± 21.5%
B: relative efficacy, tPA [4]: 1.8
IC50 [4]: 74 µM
times lower activity than compound C3, second enzyme (tPA) ([4]; versus C3 of Table 4): 12
B: relative efficacy, PL (plasmin (PL)): 0.6
IC50 (plasmin (PL)): 83 µM
times lower activity than compound C3, first enzyme (PL) (plasmin (PL); versus C3 of Table 4): 7.5
APTT relative clotting time ([5]; 0 min): 1.0
APTT relative clotting time ([5]; 30 min): 2.01 ± 0.43
APTT relative clotting time ([5]; 45 min): 2.25 ± 0.43
APTT relative clotting time ([5]; 60 min): 2.32 ± 0.43
APTT relative clotting time ([5]; 90 min): 2.11 ± 0.31
APTT relative clotting time ([5]; 120 min): 1.84 ± 0.11
APTT relative clotting time ([5]; 180 min): 1.66 ± 0.10
APTT relative clotting time ([5]; 240 min): 1.37 ± 0.08
APTT relative clotting time ([5]; 300 min): 1.31 ± 0.09
TT relative clotting time (thrombin time (TT); 0 min): 1.0
TT relative clotting time (thrombin time (TT); 30 min): 10.57 ± 5.98
TT relative clotting time (thrombin time (TT); 45 min): 10.89 ± 5.89
TT relative clotting time (thrombin time (TT); 60 min): 11.67 ± 5.69
TT relative clotting time (thrombin time (TT); 90 min): 14.00 ± 6.48
TT relative clotting time (thrombin time (TT); 120 min): 10.60 ± 4.22
TT relative clotting time (thrombin time (TT); 180 min): 2.22 ± 0.71
TT relative clotting time (thrombin time (TT); 240 min): 1.23 ± 0.07
TT relative clotting time (thrombin time (TT); 300 min): 1.13 ± 0.05

CN[C@H](Cc1ccccc1)C(=O)N1CCC[C@H]1C(=O)N[C@H](C=O)CCCNC(=N)N [Compound C1, D-MePhe-Pro-Arg-H]
IC50 [1]: 0.38 µM
WBCT relative clotting time ([2]; 0 min): 1.0
WBCT relative clotting time ([2]; 30 min): 1.07 ± 0.13
WBCT relative clotting time ([2]; 45 min): 1.26 ± 0.07
WBCT relative clotting time ([2]; 60 min): 1.55 ± 0.17
WBCT relative clotting time ([2]; 90 min): 1.61 ± 0.34
WBCT relative clotting time ([2]; 120 min): 1.45 ± 0.21
WBCT relative clotting time ([2]; 180 min): 1.44 ± 0.08
WBCT relative clotting time ([2]; 240 min): 1.22 ± 0.08
PAI(%) ([3]; 0 min): 0%
PAI(%) ([3]; 30 min): 52.8 ± 14.7%
PAI(%) ([3]; 45 min): 58.4 ± 15.6%
PAI(%) ([3]; 60 min): 54.2 ± 11.6%
PAI(%) ([3]; 90 min): 83.2 ± 8.9%
PAI(%) ([3]; 120 min): 75.2 ± 12.3%
PAI(%) ([3]; 180 min): 47.5 ± 20.9%
PAI(%) ([3]; 240 min): 32.2 ± 16.0%
IC50 [4]: 132 µM
B: relative efficacy, tPA [4, 6]: 1.0
IC50 (plasmin (PL)): 54 µM
B: relative efficacy, PL (plasmin (PL); [6]): 1.0
APTT relative clotting time ([5]; 0 min): 1.0
APTT relative clotting time ([5]; 30 min): 1.27 ± 0.38
APTT relative clotting time ([5]; 45 min): 1.30 ± 0.02
APTT relative clotting time ([5]; 60 min): 1.37 ± 0.03
APTT relative clotting time ([5]; 90 min): 1.45 ± 0.09
APTT relative clotting time ([5]; 120 min): 1.43 ± 0.11
APTT relative clotting time ([5]; 180 min): 1.39 ± 0.09
APTT relative clotting time ([5]; 240 min): 1.31 ± 0.11
APTT relative clotting time ([5]; 300 min): 1.25 ± 0.22
TT relative clotting time (thrombin time (TT); 0 min): 1.0
TT relative clotting time (thrombin time (TT); 30 min): 1.52 ± 0.17
TT relative clotting time (thrombin time (TT); 45 min): 2.50 ± 0.44
TT relative clotting time (thrombin time (TT); 60 min): 4.75 ± 1.38
TT relative clotting time (thrombin time (TT); 90 min): 10.50 ± 5.49
TT relative clotting time (thrombin time (TT); 120 min): 5.51 ± 3.59
TT relative clotting time (thrombin time (TT); 180 min): 2.05 ± 0.38
TT relative clotting time (thrombin time (TT); 240 min): 1.81 ± 0.39
